These results are taken from patent US10920265B2, “Compounds and methods for detection of enzymes that remove methyl succinyl groups from epsilon-amino lysine moieties” (Enzo Life Sciences, Inc., priority 2011, dated 2021).

Assay type in all cases: biochemical
The target of assay [1] is T1, SIRT5 (Homo sapiens, UniProt Q9NXA8).
T1 sequence (Q9NXA8 37-310): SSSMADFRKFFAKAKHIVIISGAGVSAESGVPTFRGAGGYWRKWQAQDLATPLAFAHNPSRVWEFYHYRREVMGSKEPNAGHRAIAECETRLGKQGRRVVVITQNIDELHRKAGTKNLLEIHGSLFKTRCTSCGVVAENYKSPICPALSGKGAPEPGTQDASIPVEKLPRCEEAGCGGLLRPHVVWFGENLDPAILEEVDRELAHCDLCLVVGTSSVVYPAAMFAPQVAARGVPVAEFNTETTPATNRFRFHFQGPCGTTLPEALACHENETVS
The assay is described as follows: SIRT5 desuccinylation/deacetylation of fluorogenic lysyl substrates, trypsin developer. The arrangement: purchased Enzo Life Sciences BML-SE555. The protocol: FIG. 3 is graphs showing that SIRT5 catalyzes NAD^+-dependent desuccinylation of Ac-Lys(ε-succinyl)-AMC far more efficiently than NAD^+-dependent deacetylation of Ac-Arg-His-Lys-Lys(ε-acetyl)-AMC. Fifty μl reactions in Assay Buffer (50 mM Tris/HCl, pH 8.0, 137 mM NaCl, 2.7 mM KCl, 1 mM MgCl2, 1 mg/ml BSA) included 50 μM of either Ac-Lys(ε-succinyl)-AMC or Ac-Arg-His-Lys-Lys(ε-acetyl)-AMC, and, where indicated, 500 μM NAD^+ and 5 μg recombinant human SIRT5 (Enzo Life Sciences Cat. # BML-SE555). […] AMC fluorescence was read in a Cytofluor II plate-reading fluorimeter (Perseptive Biosystems) at wavelengths 360 nm (excitation)/460 nm (emission), Gain 54. Data represent the mean of two (No Enzyme) or three (+SIRT5) determinations and error bars the standard deviations. Panels A and B present the same data, but with the +SIRT5/+NAD^+/Ac-Lys(ε-succinyl)-AMC bar omitted from B to show the detail on the remaining bars. Statistically significant differences (Student's t-test) are indicated by asterisks as follows: *: p<0.02 vs. corresponding No Enzyme control; **: p<0.001 vs. corresponding −NAD^+ control; ***: p<3×10^−6 vs. both No Enzyme and −NAD^+ controls.
FIG. 4 is a graph showing that Ac-Lys(Succ.)-AMC enables SIRT5 assay at low enzyme concentrations. Fifty μl reactions in Assay Buffer (50 mM Tris/HCl, pH 8.0, 137 mM NaCl, 2.7 mM KCl, 1 mM MgCl2, 1 mg/ml BSA) included 2 or 10 μM Ac-Lys(ε-succinyl)-AMC, 500 μM NAD^+ and, where indicated, 5 ng recombinant human SIRT5 (Enzo Life Sciences Cat. # BML-SE555). […] AMC fluorescence was read in a Synergy 2 plate-reading fluorimeter (BioTek) at wavelengths 360 nm (excitation)/460 nm (emission), Gain 40. Data represent the mean of two (No Enzyme) or three (5 ng SIRT5) determinations and error bars the standard deviations. Statistically significant differences (Student's t-test) are indicated by asterisks as follows: *: p=0.002; **: p=0.009, each with respect to the corresponding “No SIRT5” samples.
FIG. 5 is graphs showing dependence of SIRT5 initial rate kinetics on the concentrations of Ac-Lys(Succ.)-AMC and Ac-Lys(Ac.)-AMC. Fifty μl desuccinylation or deacetylation reactions were performed as described earlier (FIG. 4), with the indicated concentrations of Ac-Lys(Succ.)-AMC or Ac-Lys(Ac.)-AMC and 1 mM NAD^+, for 20 min. at 37° C. Reactions with Ac-Lys(Succ.)-AMC contained 10 ng SIRT5 and those with Ac-Lys(Ac.)-AMC contained 5 SIRT5. Reactions were stopped and AMC cleaved from deacetylated or desuccinylated substrate by trypsin treatment as described earlier (FIG. 4). AMC fluorescence was read in a Synergy 2 plate-reading fluorimeter (BioTek) at wavelengths 360 nm (excitation)/460 nm (emission), Gain 40. Data represent the mean of the differences of three determinations with enzyme (10 ng or 5 SIRT5) from the mean of two no enzyme samples for each substrate concentration. Error bars are the standard deviations from those means. Fluorescence differences were converted to specific activities (pmol/min/μg) by measuring the fluorescence increase due to the addition a standard solution of AMC (5 μl of a […]).
FIG. 6 is a graph showing the dependence of SIRT5 initial rate kinetics of Ac-Lys(Succ.)-AMC desuccinylation on the concentration of NAD^+. Reaction conditions were as described for FIG. 5 but with a constant Ac-Lys(Succ.)-AMC concentration of 0.5 mM and the indicated concentrations of NAD^+. Data analysis and determination of kinetic parameters were as described (FIG. 5).
FIG. 12 is graphs showing that SIRT5 catalyzes NAD^+-dependent desuccinylation of (Ac-Lys(Succ.))2-R110 far more efficiently than NAD^+-dependent deacetylation of (Ac-Lys(Ac.))2-R110. Fifty μl reactions in Assay Buffer (50 mM Tris/HCl, pH 8.0, 137 mM NaCl, 2.7 mM KCl, 1 mM MgCl2, 1 mg/ml BSA) included 50 μM of either (Ac-Lys(Succ.))2-R110 or (Ac-Lys(Ac.))2-R110, and, where indicated, 500 μM NAD^+ and 5 μg recombinant human SIRT5 (Enzo Life Sciences Cat. # BML-SE555). […]

Assay [2] deals with T2, HDAC2 (Homo sapiens, UniProt Q92769).
T2 construct: purchased ENZO Life Sciences BML-SE500
The assay is described as follows: HDAC activity with fluorogenic lysyl substrates. Particulars: 50 μM substrate. The protocol: The Ac-Lys(Succ.)-AMC substrate was tested for activity with recombinant preparations of human HDACs 1-11, SIRTs 1-4, 6 and 7, a complex of HDAC3 with a fragment of the activating protein NCOR1 and with HeLa nuclear extract, a rich source of active HDACs in their native multiprotein complexes.
Enzyme and extract catalog products obtained from ENZO Life Sciences included: HDAC1 (Cat. # BML-SE456), HDAC2 (Cat. # BML-SE500), HDAC3 (Cat. # BML-SE507), HDAC3/NCOR1 Complex (Cat. # BML-SE515), HDAC6 (Cat. # BML-SE508), HDAC8 (Cat. # BML-SE145), HDAC10 (Cat. # BML-SE559), HDAC11 (Cat. # BML-SE560), SIRT1 (Cat. # BML-SE239), SIRT2 (Cat. # BML-SE251), SIRT3 (Cat. # BML-SE270), SIRT5 (Cat. # BML-SE555), HeLa Nuclear Extract (Cat. # BML-KI140), Trypsin (“Fluor de Lys Developer”, 80 mg/ml bovine trypsin in 1 mM HCl, Cat. # BML-KI105 or “Fluor de Lys Developer II”, 80 mg/ml bovine trypsin in 1 mM HCl, Cat. # BML-KI176). […] Enzymes obtained from BPS Bioscience, San Diego, Calif. included: human recombinants SIRT4 (Cat. #50015), SIRT6 (Cat. #50017), SIRT7 (Cat. #50018). HeLa whole cell extract was obtained from HeLa S3 cells (American Type Culture Collection) grown in a medium of MEM/10% fetal bovine serum (FBS) as follows: 1) 9×10^6 cells were suspended by trypsinization, followed by a phosphate buffered saline (PBS) rinse and addition of MEM/10% FBS (1.5 mL) to eliminate trypsin before transfer to a 15 mL conical tube; 2) cells were sedimented by a low speed centrifugation, gently resuspended in PBS and sedimented again and supernatant removed; 3) lysis was induced by resuspension in 0.8 mL 50 mM Tris/HCl, pH 8.0 with the non-denaturing detergent NP-40 (0.5%), placement on ice and brief vortexing every 5 min. for 30 min.; 4) 100 μl of a concentrated salt solution in the same buffer was added in order to bring the final buffer composition to 50 mM Tris/C1, pH 8.0, 137 mM NaCl, 2.7 mM KCl, 1 mM MgCl2, 0.5% NP-40; 5) particulate matter was cleared by centrifugation and the cleared lysate supernatant transferred to a 1.5 mL Eppendorf tube and stored on ice until use in activity assays.
(§1) Assays were performed at 37° C., according to the manufacturer's instructions for the “SIRT1 Fluorometric Drug Discovery Kit” from Enzo Life Sciences (ELS) (Cat. # BML-AK555), with exceptions described as follows. Where indicated in figures and text, SIRT1 enzyme was replaced with another enzyme or extract and the “Fluor de Lys-SIRT1 Substrate” (Ac-Arg-His-Lys-Lys(Ac)-AMC; ELS Cat. # BML-KI-177) was replaced with another acetylated, succinylated or trifluoroacetylated substrate.

Assay [3] concerns the target T1, SIRT5. The assay is described as follows: Inhibition of SIRT5 desuccinylation of Ac-Lys(Succ.)-AMC. The arrangement: purchased Enzo Life Sciences BML-SE555. Conditions: three parameter Hill-Slope model, bottom fixed at 0.
Description: Signal development (trypsin treatment) and fluorescence readings were done as described, as were the conversion of fluorescence increases to rates in units of pmol/min/μg (FIG. 5). Data points represent the mean of three determinations and the error bars are the standard deviations from those means. The dose-response curve was derived from a least-squares fit to a three parameter Hill-Slope model (bottom fixed at 0 pmol/min/μg), y=top/(1+(x/IC50)^slope).
Data points represent the mean of three determinations and the error bars are the standard deviations from those means. The dose-response curve was derived from a least-squares fit to a three parameter Hill-Slope model (bottom fixed at 0 pmol/min/μg), y=top/(1+(x/IC50)^slope).
as §1

Assay [4] addresses T3, bovine pancreatic trypsin (Bos taurus, UniProt P00760).
T3 construct: purchased ENZO Life Sciences BML-KI105 or BML-KI176; host or cells: bovine pancreas
T3 sequence (P00760 24-246): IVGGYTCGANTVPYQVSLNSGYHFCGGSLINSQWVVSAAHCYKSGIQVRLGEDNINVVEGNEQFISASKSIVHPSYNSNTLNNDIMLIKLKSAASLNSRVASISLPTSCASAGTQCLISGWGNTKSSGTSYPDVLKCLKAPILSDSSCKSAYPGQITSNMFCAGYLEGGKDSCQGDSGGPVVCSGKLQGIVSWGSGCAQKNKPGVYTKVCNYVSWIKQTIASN
Kind of assay: Trypsin release of AMC from lysyl-AMC compounds. Conditions: 1 μM compound, trypsin 2 mg/ml, room temperature. The protocol: FIG. 2 is a graph showing that trypsin treatment releases fluorescent AMC from Ac-Lys-AMC but not Ac-Lys(Succinyl)-AMC. Samples (100 μl) of 1 μM Ac-Lys-AMC and 1 μM Ac-Lys(Succinyl)-AMC in a buffered solution (50 mM Tris/HCl, pH 8.0, 137 mM NaCl, 2.7 mM KCl, 1 mM MgCl2) were treated with bovine pancreatic trypsin (2 mg/ml) for the indicated times at room temperature. Samples were in the wells of a 96-well, ½-area white microplate and fluorescence was measured at 1 min. intervals at the excitation and emission wavelengths for free AMC (Excitation: 360 nm; Emission: 460 nm) in a Synergy 2 microplate reading fluorimeter (BioTek), Gain 40. The data points at 0 min. represent the fluorescence of equivalent 1 μM Ac-Lys(Succ.)-AMC and 1 μM Ac-Lys-AMC samples in the absence of trypsin.
As noted in the Background of the Invention section above, the protease trypsin catalyzes the hydrolytic cleavage of amide bonds on the carboxyl side of unmodified lysine residues. Hydrolytic cleavage of lysyl amide bonds with AMC or rhodamine 110 (dye components of Compounds 1 and 2, respectively) releases the free amino forms of the dyes. This elicits an upward shift of the dye's fluorescence emission peak wavelength (bathochromic shift), for example to 460 nm for AMC or 530 nm for rhodamine 110. If succinylation of the ε-amino function of the lysine moieties in compounds such as 1 and 2 renders the amide bond between the carbonyl of lysine and the amino of dye groups such as AMC or rhodamine resistant to trypsin cleavage then, upon desuccinylation, the lysine/dye amide bond would become cleavable by trypsin. Note that removal of a single succinyl group from 2, followed by cleavage of the desuccinylated lysine would yield a compound with a single free amino function, Ac-K(Succ.)-R110. Monoamides of rhodamine 110 also have increased fluorescence emission at 530 nm relative to 2, although they are less fluorescent than rhodamine 110 itself (Liu et al., 1999). Thus, monitoring the fluorescence at the peak wavelength of the amino form of the dye would allow the desuccinylation reaction to be quantified. A schematic for such an assay is depicted for Compound 1 and SIRT5 in FIG. 1. Trypsin treatment (2 mg/ml) elicits an immediate increase in the fluorescence of a solution of Ac-Lys-AMC (Compound 6—FIG. 1) at the excitation and emission wavelengths of free AMC (Ex. 360 nm; Em. 460 nm), with maximum fluorescence achieved in 2 min. or less and ˜⅔ of that maximum occurring in 1 min. (FIG. 2).

As a reminder, the Km is the substrate concentration at which the rate is half of its maximum.

T2 sequence (Q92769 whole entry): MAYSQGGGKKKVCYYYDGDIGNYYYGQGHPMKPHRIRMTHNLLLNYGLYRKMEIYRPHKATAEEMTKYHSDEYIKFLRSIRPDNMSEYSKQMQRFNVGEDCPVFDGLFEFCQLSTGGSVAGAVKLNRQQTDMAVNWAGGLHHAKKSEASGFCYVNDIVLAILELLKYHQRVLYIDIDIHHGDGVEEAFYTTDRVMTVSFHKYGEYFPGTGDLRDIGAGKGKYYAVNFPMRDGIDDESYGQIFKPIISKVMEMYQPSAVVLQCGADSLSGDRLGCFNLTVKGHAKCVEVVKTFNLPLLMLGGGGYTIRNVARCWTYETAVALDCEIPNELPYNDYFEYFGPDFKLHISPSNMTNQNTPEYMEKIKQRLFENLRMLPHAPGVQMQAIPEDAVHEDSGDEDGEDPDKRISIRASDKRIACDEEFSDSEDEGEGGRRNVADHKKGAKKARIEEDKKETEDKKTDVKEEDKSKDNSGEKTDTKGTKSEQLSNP

Regarding `NC(=O)c1ccc[n+]([C@@H]2O[C@H](COP(=O)([O-])OP(=O)(O)OC[C@H]3O[C@@H](n4cnc5c(N)ncnc54)[C@H](O)[C@@H]3O)[C@@H](O)[C@H]2O)c1` [NAD^+], in assay [1] (varied substrate: NAD^+, constant 0.5 mM Ac-Lys(Succ.)-AMC), the Km is 360 µM. Regarding `CC(=O)NCCCCC(NC(C)=O)C(=O)Nc1ccc2c(c1)Oc1cc(NC(=O)C(CCCCNC(C)=O)NC(C)=O)ccc1C21OC(=O)c2ccccc21` (stereo not shown) [(Ac-Lys(Ac))2-R110, reference compound], in assay [2], the “Activity (pmol/min/μg)” value is recorded as “(Ac-Lys(Ac))2-R110/502 pmol/min/μg”. As for `NC(=O)c1cccnc1` [nicotinamide], in assay [3], the “slope (fitted parameter of dose-response curve)” value was 0.98 and the “top (fitted parameter of dose-response curve)” value was determined as 90.2 pmol/min/µg.

On to `CC(=O)N[C@@H](CCCCN)C(=O)Nc1ccc2c(C)cc(=O)oc2c1` [Compound 6, N-(α-acetyl-Lysine)-AMC, reference compound], for which, in assay [4], the “Fraction of maximum fluorescence at 1 min.” value is reported as “⅔” and the “Time to maximum fluorescence on trypsin treatment” value is ≤ 2 min.

Regarding `CC(=O)NC(CCCCNC(=O)CCC(=O)O)C(=O)Nc1ccc2c(c1)Oc1cc(NC(=O)C(CCCCNC(=O)CCC(=O)O)NC(C)=O)ccc1C21OC(=O)c2ccccc21` (stereo not drawn) [Compound 2, N,N′-Bis(α-acetyl-Lysine(ε-succinyl))-rhodamine 110], the “SIRT5/NAD^+ dependence of desuccinylation” value in assay [1] (5 μg SIRT5, 50 μM substrate, 500 μM NAD^+, 60 min.) was “desuccinylated by SIRT5 in a time and NAD^+-dependent manner”.
